{"source": "patent US20120039813A1", "about": "“INTRINSICALLY COLORED, LUMINESCENT SILK FIBROIN AND A METHOD OF PRODUCING THE SAME” (priority 2009, published 2012)", "key": {"silkworm [1]": {"tested_on": "silkworm", "experiment": "Uptake of dyes into the silkworm and the silk fibroin after feeding dye-modified feed", "format": "in vivo", "settings": "for Uptake of dye in worm / Uptake of dye in fibroin: dye fed to silkworm in modified feed; for Uptake of dye in fibroin: silk fibroin", "from_the_text": "The modified feed was then fed to silkworms starting on the third day of fifth instar. The silk gland, obtained through dissection, also absorbed the dye and became colored. At day 8-9 of fifth instar, the silkworms started producing intrinsically colored and fluorescent silk cocoon as shown in FIG. 3. […]"}, "physchem": {"experiment": "physchem", "from_the_text": "(§1) FIG. 12 depicts the quantity of various dyes in sericin and fibroin per gram of raw silk as a function of their n-octanol/water partition coefficient (log p).\n(§2) FIG. 12 summarizes the amounts of various dyes distributed in silk's fibroin and sericin as a function of log P, a measure of hydrophobicity."}, "silkworm [2]": {"tested_on": "silkworm", "experiment": "Quantity of various dyes in sericin, fibroin and gland content of dye-fed silkworms", "from_the_text": "as §1, §2"}, "[3]": {"settings": "other dye molecules apart from the rhodamine series, feeding method"}}, "note": "“Also recorded” adds a separate entry of the source.", "data": [{"molecule": "rhodamine 123", "values": [{"measurement": "Uptake of dye in worm", "setting": "silkworm [1]", "value": "no"}, {"measurement": "Uptake of dye in fibroin", "setting": "silkworm [1]", "value": "no"}]}, {"molecule": "O=C1OC2(c3ccc(O)cc3Oc3cc(O)ccc32)c2ccccc21", "note": "[Fluorescein, fluorescein]", "values": [{"measurement": "Uptake into silk gland and silk", "setting": "silkworm [1]; [3]", "value": "did not display significant uptake"}, {"measurement": "logP", "setting": "physchem", "value": -0.79}, {"measurement": "Amount of dye present in silk (sericin and fibroin) and silkworm", "setting": "silkworm [2]; in vivo", "value": "negligible presence in silk and in silkworm"}]}, {"molecule": "O=S1(=O)OC(c2cc(Br)c(O)c(Br)c2)(c2cc(Br)c(O)c(Br)c2)c2ccccc21", "note": "[Bromophenol blue]", "values": [{"measurement": "Uptake into silk gland and silk", "setting": "silkworm [1]; [3]", "value": "did not display significant uptake"}]}, {"molecule": "CN(C)c1ccc2cc3ccc(N(C)C)cc3nc2c1", "note": "[Acridine orange, acridine orange]", "values": [{"measurement": "Uptake into silk gland and silk", "setting": "silkworm [1]; [3]", "value": "efficient uptake"}, {"measurement": "logP", "setting": "physchem", "value": 1.8}, {"measurement": "Amount of dye present in silk (sericin and fibroin) and silkworm", "setting": "silkworm [2]; in vivo", "value": "very low concentration in silk"}, {"measurement": "Concentration in gland content", "setting": "silkworm [2]; in vivo", "value": "very low"}]}, {"molecule": "CCN(CC)c1ccc2c(-c3ccccc3C(=O)O)c3ccc(=[N+](CC)CC)cc-3oc2c1.[Cl-]", "note": "[Rhodamine B, rhodamine B]", "values": [{"measurement": "Uptake of dye in worm", "setting": "silkworm [1]", "value": "yes"}, {"measurement": "Uptake of dye in fibroin", "setting": "silkworm [1]", "value": "yes"}, {"measurement": "log P (n-octanol/water partition coefficient)", "setting": "physchem; measure of hydrophobicity", "value": 2.43}, {"measurement": "Amount of dye present in silk (sericin and fibroin) and silkworm", "setting": "silkworm [2]; FIG. 12, result in words", "value": "much higher concentration"}, {"measurement": "Distribution of dye between silk sericin and fibroin", "setting": "silkworm [2]; FIG. 12, result in words", "value": "majority residing in silk fibroin rather than sericin"}, {"measurement": "Concentration in gland content", "setting": "silkworm [2]; in vivo", "value": "~1000", "unit": "µM"}]}, {"molecule": "CCN(CC)c1ccc2c(c1)Oc1cc(N(CC)CC)ccc1C21OC(=O)c2ccccc21", "note": "[Rhodamine B base, rhodamine B base]", "values": [{"measurement": "Uptake of dye in worm", "setting": "silkworm [1]", "value": "yes"}, {"measurement": "Uptake of dye in fibroin", "setting": "silkworm [1]", "value": "yes"}]}, {"molecule": "O=S(=O)([O-])c1cc(S(=O)(=O)O)ccc1C1=c2cc3c4c(c2Oc2c1cc1c5c2CCCN5CCC1)CCC[N+]=4CCC3", "note": "[sulforhodamine 101]", "values": [{"measurement": "log P (n-octanol/water partition coefficient)", "setting": "physchem", "value": "−0.69"}, {"measurement": "Amount of dye present in silk (sericin and fibroin) and silkworm", "setting": "silkworm [2]; in vivo", "value": "negligible presence in silk and in silkworm"}]}, {"molecule": "rhodamine 116", "values": [{"measurement": "log P (n-octanol/water partition coefficient)", "setting": "physchem; measure of hydrophobicity", "value": 0.64}]}, {"molecule": "Cl.N=c1ccc2c(-c3ccccc3C(=O)O)c3ccc(N)cc3oc-2c1", "note": "[Rhodamine 110, rhodamine 110]", "values": [{"measurement": "log P (n-octanol/water partition coefficient)", "setting": "physchem", "value": 1.17}, {"measurement": "Amount of dye present in silk (sericin and fibroin) and silkworm", "setting": "silkworm [2]; FIG. 12, result in words", "value": "substantial amounts in both sericin and fibroin; also recorded: lower uptake"}]}, {"molecule": "O=C(O)c1ccccc1C1=c2cc3c4c(c2Oc2c1cc1c5c2CCCN5CCC1)CCC[N+]=4CCC3.[Cl-]", "note": "[Rhodamine 101, rhodamine 101]", "values": [{"measurement": "Uptake of dye in worm", "setting": "silkworm [1]", "value": "yes"}, {"measurement": "Uptake of dye in fibroin", "setting": "silkworm [1]", "value": "yes"}, {"measurement": "log P (n-octanol/water partition coefficient)", "setting": "physchem", "value": 2.19}, {"measurement": "Amount of dye present in silk (sericin and fibroin) and silkworm", "setting": "silkworm [2]; FIG. 12, result in words", "value": "much higher concentration"}, {"measurement": "Distribution of dye between silk sericin and fibroin", "setting": "silkworm [2]; FIG. 12, result in words", "value": "majority residing in silk fibroin rather than sericin"}]}, {"molecule": "Alcian blue", "values": [{"measurement": "Uptake into silk gland and silk", "setting": "silkworm [1]; in vivo", "value": "did not display significant uptake"}]}]}
